Laboratory results: patent publication EP0374249A1, “METHOD OF STERILIZING PLANT POLLEN” (VSESOJUZNY NAUCHNO-ISSLEDOVATELSKY INST. SELSKOKHOZYAISTV. …, priority 1988, dated 1989)

Tests used:
[1] = test system: diploidem Roggen Sorte Talovskaya 12; assay: Field test of pollen sterilisation, diploid rye Talovskaya 12; type: in vivo; conditions: 1% aqueous emulsion, 6 kg/ha
Excerpt: (§7) Mit dem Ahrenschiebe verwirklicht man die Isolierung von Hauptähren und anderen Stockwerken in Pergamentbeuteln. […] Bei Roggen schliesst man je Ähre 5 bis 7 verschiedene nebeneinander befindliche Pflanzen unter einen gemeinsamen Isolator ein. […] Der Sterilitätsprozentsatz (X) für Weizen, Roggen, Tritikale und Hirse wird nach folgender Formel [formula] ermittelt.
Pflanzen von diploidem Roggen Sorte Talovskaya 12 werden in der V. Periode der Organogenese (nach Kupermann) mit einer 1%igen wässrigen Emulsion von N-(2-Di- methylaminoäthyl)-maleaminsäure, N-(3-Dimethylaminopropyl)-maleaminsäure, N-Äthylmaleaminsäure, N-(2-Hydroxyäthyl)maleaminsäure, N-Karbamoylmaleaminsäure behandelt. Die Emulsion enthält 0,01 Masse% Dodezylsulfat und 0,1 Masse% Kalziumalkylbenzolsulfonat mit 12 bis _14 Kohlenstoffatomen. Der Verbrauch an Präparat beträgt 6 kg/ha. Als Kontrolle dienen Pflanzen, behandelt mit einem Verdünner ohne Sterilisationsmittel.

[2] = test system: Winterweizens Sorte Bezostaya 1; assay: Field test of pollen sterilisation, winter wheat Bezostaya 1; type: in vivo, Winterweizen; conditions: 2% aqueous emulsion, 16 kg/ha
Excerpt: Pflanzen des Winterweizens Sorte Bezostaya 1 werden in der V. Periode der Organogenese durch Zerstäubung einer 2%igen wässrigen Emulsion von N-(2-Dimethylaminoäthyl)-maleaminsäure, N-(3-Dimethylaminopropyl)-maleaminsäure, N-Äthylmaleaminsäure, N-(2-Hydroxyäthyl)-maleaminsäure, N-Karbamoylmaleaminsäure mit Hilfe deiner Rückspritze behandelt. Die Emulsion enthält 0,1 Masse% Kalziumalkylbenzolsulfonat mit 12 bis 14 Kohlenstoffatomen. Als Adjuvans führt man in die Emulsion 0,01 Masse% Tetrahydrofuran ein.
Der Verbrauch an Präparat beträgt 16 kg/ha. Als Kontrolle dienen Pflanzen, behandelt mit einem Verdünner ohne Sterilisationsmitteln.

[3] = test system: Winterweizens Sorte Mir.onovskaya 808; assay: Field test of pollen sterilisation (gametocidal activity), winter wheat Mironovskaya 808; type: in vivo, Winterweizen; conditions: 2% aqueous emulsion, 20 kg/ha
Excerpt: Als Emulgierungsmittel wird 0,1 Masse% Kalziumalkylbenzolsulfonat mit 12 bis 14 Kohlenstoffatomen hinzugefügt. Als Adjuvans fährt man in die Emulsion 0,01 Masse% Dimethylsulfoxid ein. Der Verbrauch an Präparat beträgt 20 kg/ha. Als Kontrolle dienen Pflanzen, behandelt mit einem Verdünner ohne Sterilisationsmittel.

[4] = test system: tetraploidem Roggen Sorte Ukrainskaya tetra; assay: Field test of pollen sterilisation, tetraploid rye Ukrainskaya tetra; type: in vivo; conditions: 1% aqueous emulsion, 6 kg/ha
Excerpt: (§1) Jedes Sterilisationsmittel wurde mindestens 5 Jahre lang geprüft.
(§2) Die Entwicklung der Perioden der Organogenese wird zytologischüberwacht. Die Behandlung von Pflanzen mit dem Sterilisationsmittel erfolgt am Anfang der fünften Periode der Organogenese nach Kupermann.
(§3) Mit dem Ahrenschiebe verwirklicht man die Isolierung von Hauptähren und anderen Stockwerken in Pergamentbeuteln. Bei Weizen und Tritikale werden Einzelisolatoren verwendet. Bei Roggen schliesst man je Ähre 5 bis 7 verschiedene nebeneinander befindliche Pflanzen unter einen gemeinsamen Isolator ein. Bei Hirse wird jede Rispe getrennt isoliert. Der Sterilitätsprozentsatz (X) für Weizen, Roggen, Tritikale und Hirse wird nach folgender Formel [formula] ermittelt.
(§4) Die Kornzahl in nicht isolierten ähren von Kontrollpflanzen wird bedingt für 100% Ansetzen bei freier Bestäubung angenommen.
(§5) Um zuverlässige Angaben zu erhalten, verwendet man 20 bis 25 Isolatoren jeder Wiederholung für Weisen und Tritikale, 10 bis 15 Gruppenisolatoren jeder Wiederholung für Roggen und Hirse.
Pflanzen von tetraploidem Roggen Sorte Ukrainskaya tetra werden in der V. Periode der Organogenese (nach Kupermann) mit einer 1%igen wässrigen Emulsion von N-(2-Dimethylaminoäthyl)maleaminsäure, N-(3-Dimethyl-aminopropu)maleaminsäure bzw. N-Karbamoylmaleaminsäure behandelt. Die Emulsion enthält 0,1 Masse% Kaliumalkylbenzolsulfonat mit 12 bis 14 Kohlenstoffatomen und 0,01 Masse% Dodezylsulfat. Der Verbrauch an Präparat beträgt 6 kg/ha. Als Kontrolle dienen Pflanzen, behandelt mit einem Verdünner ohne Sterilisationsmittel. Die Prüfergebnisse sind in der Tabelle 6 dargestellt.

[5] = test system: diploidem Roggen Sorte Voskhod 2; assay: Field test of pollen sterilisation, diploid rye Voskhod 2; type: in vivo; conditions: 1% aqueous emulsion, 10 kg/ha
Excerpt: Die Emulsion enthält 0,1 Masse% Kalziumalkylbenzolsulfonat und 0,01 Masse% Dimethylformamid. Der Verbrauch an Präparat beträgt 10 kg/ha. Als Kontrolle dienen Pflanzen, behandelt mit einem Lösungsmittel ohne Sterilisationsmittel.

[6] = test system: Sommerweizens Sorte Botanicheskaya 4; assay: Field test of pollen sterilisation, spring wheat Botanicheskaya 4; type: in vivo, Sommerweizen; conditions: 1% aqueous emulsion, 6 kg/ha
Excerpt: Pflanzen des Sommerweizens Sorte Botanicheskaya 4 werden in der V. Periode der Organogenese (nach Kupermann) mit einer 1%igen Wässrigen Emulsion von N-(2-Dimethyl-aminoäthyl)-maleaminsäure, N-(3-Dimethylaminopropyl)-maleaminsäure, N-Äthylmaleaminsäure, N-(2-Hydroxyäthyl)-maleaminsäure bzw. N-Karbamoylmaleaminsäure behandelt. Die Emulsion enthält 0,5 Masse% Kalziumalkylbenzolsulfonat mit 12 bis 14 Kohlenstoffatomen und 0,01 Masse% Dimethylsulfoxid als Adjuvans. Der Verbrauch an Präparat beträgt 6 kg/ha. Als Kontrolle dienen Pflanzen, behandelt mit einem Verdünner ohne Sterilisationsmittel.

[7] = Toxicity test in animals (LD50); conditions: in vivo; animal test, per kg animal weight; species and route not given
Excerpt: Alle erfindungsgemässen N-substituierten Maleaminsäuren, welche als Sterilisationsmittel zur Verwendung kommen, waren auf die Toxizität im Tierversuch geprüft. Die Prüfergebnisse haben ergeben, dass die angegebenen Verbindungen von schwacher oder mittlerer Toxizität sind.

[8] = test system: tetraploidem Roggen Sorte Belta; assay: Field test of pollen sterilisation, tetraploid rye Belta; type: in vivo; conditions: 1% aqueous emulsion, 10 kg/ha
Excerpt: (§6) Die gametozide Aktivität der erfindungsgemässen Sterilisationsmittel war im Feldversuch in verschiedenen Bodenklimatischen Zonen mit Teilstücken von 10 m^2 Grösse in drei- bis viermaliger Wiederholung nachgewiesen. Jedes Sterilisationsmittel wurde mindestens 5 Jahre lang geprüft.
as §2, §3, §4, §5
Pflanzen von tetraploidem Roggen Sorte Belta werden in der V. Periode der Organogenese (nach Kupermann) mit einer 1%igen wässrigen Emulsion von N-(2-Dimethylamino- .äthyl)maleaminsäure, N-(3-Dimethylaminopropyl)maleaminsäure, N-Äthylmaleaminsäure, N-(2-Hydroxyäthyl)maleaminsäure bzw. Karbamoylmaleaminsäure behandelt. Die Emulsion enthält 0,5 Masse% Kalziumalkylbenzolsulfonat mit 12 bis 14 Kohlenstoffatomen und 0,01 Masso% Tetrahydrofuran. Der Verbrauch an Präparat beträgt 10 kg/ha. Die Prüfergebnisse sind in der Tabelle 5 dargestellt. […] Periode der Organogenese erhalten.

[9] = test system: diploidem Roggen Sorte Chulpan; assay: Field test of pollen sterilisation, diploid rye Chulpan; type: in vivo; conditions: 1% aqueous emulsion, 8 kg/ha
Excerpt: as §7
Die Emulsion enthält 0,01 Masse% Tetranydrofuran und 0,1 Masse% Kalziumalkylbenzolsulfonat mit 12 bis 14 Kohlenstoffatomen. Der Verbrauch an Präparat beträgt 8 kg/ha. Als Kontrolle dienen Pflanzen, behandelt mit einem Verdünner ohne Sterilisationsmittel.

[10] = test system: Sommerweizens Sorte Moskovskaya 35; assay: Field test of pollen sterilisation, spring wheat Moskovskaya 35; type: in vivo, Sommerweizen; conditions: 1% aqueous emulsion, 10 kg/ha
Excerpt: Pflanzen des Sommerweizens Sorte Moskovskaya 35 werden in V. Periode der Organogenese (nach Kupermann) mit einer 1%igen wässrigen Emulsion von N-(2-Dimethyl-aminoäthyl)-maleaminsäure, N-(3-Dimethylaminopropyl)-maleaminsäure, N-Äthylmaleaminsäure, N-(2-Hydroxyäthyl) maleaminsäure bzw. N-Karbamoylmaleaminsäure behandelt. Die Emulsion enthält 0,5 Masse% Kalziumalkylbenzolsulfonat mit 12 bis 14 Kohlenstoffatomen als Emulgierungsmittel und 0,01 Masse% Dimethylformamid als Adjuvans. Der Verbrauch an Präparat beträgt 10 kg/ha. Als Kontrolle dienen Pflanzen, behandelt mit einem Verdünner ohne Sterilisationsmittel.

[11] = test system: Tritikale Sorte Prag 109; assay: Field test of pollen sterilisation, triticale Prag 109; type: in vivo; conditions: 2% aqueous emulsion, 12 kg/ha
Excerpt: as §1, §2, §3, §4, §5
V.Periode der Organogenese (nach Kupermann) mit einer 2%igen wässrigen Emulsion von N-(3-Dimethylaminopropyl) maleaminsäure, N-Karbamoylmaleaminsäure behandelt. Die Emulsion enthält 0,01 Masse% Tetrahydrofuran […] und 0,1 Masse% Kalziumalkylbenzolsulfonat mit 12 bis 14 Kohlensotffatomen. Der Verbrauch an Präparat beträgt 12 kg/ha. Als Kontrolle dienen Pflanzen, behandelt mit einem Verdünner ohne Sterilisationsmittel.

[12] = test system: Hirse Sorte Mironovskoe 94; assay: Field test of pollen sterilisation, millet Mironovskoe 94; type: in vivo; conditions: 1% aqueous emulsion, 8 kg/ha
Excerpt: as §6, §2, §3, §4, §5
Pflanzen der Hirse Sorte Mironovskoe 94 werden in der V. Periode der Organogenese (nach Kupermann) mit einer 1%igen wässrigen Emulsion von N-(2-Dimethylaminoäthyl)maleaminsäure, N-(3-Dimethylaminopropyl)maleaminsäure, N-Äthylmaleaminsäure, N-(2-Hydroxyäthyl)maleaminsäure, N-Karbamoylmaleaminsäure behandelt. Die Emulsion enthält 0,01 Masse% Dimethylaulfoxid und 0,1 Masse% Kalziumalkylbenzolsulfonat mit 12 bis 14 Kohlenstoffatomen. Der Verbrauch an Präparat beträgt 8 kg/ha. Als Kontrolle dienen Pflanzen, behandelt mit einem Verdünner ohne Sterilisationsmittel. Die Prüfergebnisse sind in der Tabelle 12 dargestellt. […] Periode der Organogenese erhalten.

[13] = period V of organogenesis, free pollination
[14] = period V of organogenesis, isolated ears
[15] = period V, non-isolated control ears = 100%

With `NC(=O)NC(=O)/C=C\C(=O)O` [Beispiel 5, N-Karbamoylmaleaminsäure] the “Prozentsatz der Sterilität” value ([1]; period V of organogenesis) was 100,0%, the “Anzahl von Körnern der Ähre bei freier Bestäubung” value [1, 13] was 48,9 and the “Anzahl von Körnern der Ähre im Isolator” value [1, 14] was 0,0. The “Prozentsatz des Ansetzens von Körnern bei freier Bestäubung” value [1, 15] was 87,0%, the “Prozentsatz der Sterilität” value ([2]; period V of organogenesis) was 97,8% and the “Anzahl von Körnern der Ähre bei freier Bestäubung” value [2, 13] was 41,8. For the same compound, the “Anzahl von Körnern der Ähre im Isolator” value [2, 14] was 0,7, the “Prozentsatz des Ansetzens von Körnern bei breier Bestäubung” value [2, 15] was 97,4% and the “Prozentsatz der Sterilität” value ([3]; period V of organogenesis) was 100,0%. For the same compound, the “Anzahl von Körnern der Ähre bei freier Bestäubung” value [3, 13] was 40,0, the “Anzahl von Körnern der Ähre im Isolator” value [3, 14] was 0,0 and the “Prozentsatz des Ansetzens von Körnern bei freier Bestäubung” value [3, 15] was 93,9%. The “Prozentsatz der Sterilität” value ([4]; period V of organogenesis) was 99,4%, the “Anzahl von Körnern der Ähre bei freier Bestäubung” value [4, 13] was 44,0 and the “Anzahl von Körnern der Ähre im Isolator” value [4, 14] was 0,2. The “Prozentsatz des Ansetzens von Körnern bei freier Bestäubung” value [4, 15] was 98,2%, the “Prozentsatz der Sterilität” value ([5]; period V of organogenesis) was 98,2% and the “Anzahl von Körnern der Ähre bei freier Bestäubung” value [5, 13] was 51,7. The “Anzahl von Körnern der Ähre im Isolator” value [5, 14] was 0,9, the “Prozentsatz des Ansetzens von Körnern bei freier Bestäubung” value [5, 15] was 93,7% and the “Prozentsatz der Sterilität” value ([6]; period V of organogenesis) was 100,0%. For the same compound, the “Anzahl von Körnern der Ähre bei freier Bestäubung” value [6, 13] was 27,1, the “Anzahl von Körnern der Ähre im Isolator” value [6, 14] was 0,0 and the “Prozentsatz des Ansetzens von Körnern bei freier Bestäubung” value [6, 15] was 90,0%. For the same compound, the LD50 [7] was 2000 mg/kg, the “Prozentsatz der Sterilität” value ([8]; period V of organogenesis) was 100,0% and the “Anzahl von Körnern der Ähre bei freier Bestäubung” value [8, 13] was 47,8. The “Anzahl von Körnern der Ähre im Isolator” value [8, 14] was 0,0, the “Prozentsatz des Ansetzens von Körnern bei freier Bestäubung” value [8, 15] was 87,2% and the “Prozentsatz der Sterilität” value ([9]; period V of organogenesis) was 100,0%. For the same compound, the “Anzahl von Körnern der Ähre bei freier Bestäubung” value [9, 13] was 48,7, the “Anzahl von Körnern der Ähre im Isolator” value [9, 14] was 0,0 and the “Prozentsatz des Ansetzens von Körnern bei freier Bestäubung” value [9, 15] was 85,7%. For the same compound, the “Prozentsatz der Sterilität” value ([10]; period V of organogenesis) was 100,0%, the “Anzahl von Körnern der Ähre bei freier Bestäubung” value [10, 13] was 27,2 and the “Anzahl von Körnern der Ähre im Isolator” value [10, 14] was 0,0. For the same compound, the “Prozentsatz des Ansetzens von Körnern bei freier Bestäubung” value [10, 15] was 98,9%, the “Prozentsatz der Sterilität” value ([11]; period V of organogenesis) was 100,0% and the “Anzahl von Körnern der Ähre bei freier Bestäubung” value [11, 13] was 39,6. For the same compound, the “Anzahl von Körnern der Ähre im Isolator” value [11, 14] was 0,0, the “Prozentsatz des Ansetzens von Körnern bei freier Bestäubung” value [11, 15] was 86,5% and the “Prozentsatz der Sterilität” value ([12]; period V of organogenesis) was 100,0%. For the same compound, the “Anzahl von Körnern der Rispe bei freier Bestäubung” value [12, 13] was 198,2, the “Anzahl von Körnern der Rispe im Isolator” value ([12]; period V of organogenesis, isolated panicles) was 0,0 and the “Prozentsatz des Ansetzens von Körnern bei freier Bestäubung” value ([12]; period V, non-isolated control = 100%) was 87,2%.
